From patent US20240368566A1, “PYK2-DERIVED PEPTIDES FOR INHIBITING INVADOPODIA-MEDIATED CANCER METASTASIS” (BAR-ILAN UNIVERSITY, priority 2023, published 2024)
“Also recorded” adds a separate entry of the source.

Legend:
[1] = biological target: T1, cortactin SH3 domain (Mus musculus, UniProt Q60598); assay: NMR affinity determination, binding of peptides to purified cortactin-SH3; settings: binding to cortactin SH3 in vitro
T1 construct: nucleotides1468-1641); 6xHis (N, cleaved yes); made in house; host or cells: E. coli BL21 (DE3)
T1 sequence (Q60598 490-546): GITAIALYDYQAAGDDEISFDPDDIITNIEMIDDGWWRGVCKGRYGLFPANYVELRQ
Procedure: The DNA sequence encoding the SH3 domain of the mouse cortactin SH3 domain (GenBank ID U03184; nucleotides1468-1641) was sub-cloned into a pET-28a plasmid (Novagen, Merck) in frame with the cleavable N-terminal 6×His tag. Isotopically labeled cortactin-SH3 for heteronuclear NMR experiments was expressed in transformed E. coli BL21 cells (DE3) grown in the presence of kanamycin (50 mg/1) and chloramphenicol (34 mg/1) at 37° C. in M9 minimal medium. For ^15N (^13C) labeling the medium contained 1 g/L of ^15NH4Cl (4 g/L ^13C6-glucose), and 0.25 g/l of appropriately labeled Celtone Base Powder (Cambridge Isotope Laboratories, Andover, MA) was added. For triple-labeled ^2H,^13C,^15N—SH3, expression began in 100 ml of the above medium grown to an OD600 of 0.4-0.5 and gently centrifuged. Pellets were then resuspended in 500 ml filter-sterilized D20-based ^15N-M9 supplemented with ^2H7-^13C6-glucose (2 g/1) and DCN-Isogro (0.25 g/1) to reach a final OD600 of −0.1. In both cases cells were then grown at 37° C. and induced with 0.5 mM isopropyl β-D-1-thiogalactopyranoside (IPTG) upon reaching OD600-0.8, followed by overnight growth at 27° C. To purify the SH3 domain, cells were harvested by centrifugation, subjected to a single freeze-thaw cycle, and resuspended in lysis buffer (50 mM NaPi pH 8.0, 300 mM NaCl, 1 mM dithiothreitol (DTT), 100 ml per liter of culture) supplemented with 1 tablet EDTA-free protease inhibitor cocktail (Merck) and benzamidine (5 mM). Cells were lysed by French press, followed by addition of benzamidine (final concentration 10 mM) and phenylmethylsulfonyl fluoride (PMSF, 1 mM), and the lysate was clarified by centrifugation. The supernatant was loaded on a HisTrap HP column (GE Healthcare, Chicago, IL, USA) equilibrated with lysis buffer and the protein eluted through a gradient (Buffer B: 50 mM NaPi pH 8.0, 100 mM NaCl, 300 mM imidazole, 1 mM DTT). To the fraction eluting at ˜40% B purified tobacco etch virus (TEV) protease (1:30 mol:mol) was added, and the mixture dialyzed overnight at 4° C. against dialysis buffer (50 mM NaPi at pH 8.0, 100 mM NaCl, 1 mM DTT). The dialysate was brought to a final concentration of ˜5 mM imidazole, filtered, and loaded onto a HisTrap column. The collected flowthrough was dialyzed against 20 mM Tris (pH 7.5), 1 mM DTT for 3 h to reach a final concentration of 10 mM NaCl. […]
Purified SH3 was dialyzed against NMR sample buffer (30 mM NaPi, pH ˜6.5) and concentrated to the desired concentration in an Amicon concentration tube (3 kDa MWCO) (Merck). […] For quantitative titrations, purchased peptides were dissolved in 100-300 μl NMR sample buffer, and samples at varying (SH3:PRR2 1:0-1:6, SH3 concentration constant at 0.1 mM) ratios were prepared. Fittings were performed with 5-6 measured points. […]

[2] = test system: 4T1 cells; assay: Spontaneous lung metastasis clonogenic assay in 4T1 xenograft mouse model; type: in vivo, BALB/c female mice; settings: 10 mg/kg once a day for eight days, intraperitoneal injection, HIV-TAT fused peptide; versus scrambled control
Procedure: All experimental procedures were conducted following the Federation of Laboratory Animal Science Association (FELSA) and were approved by the Bar-Ilan University animal use and care committee. Mouse xenograft tumors were generated by injecting 10^6 4T1 cells resuspended in 20% collagen I (BD Biosciences, Franklin Lakes, NJ, USA) in PBS into the lower-left mammary gland of 8-week-old BALB/c female mice. […] 4T1 cells have intrinsic resistance to 6-thioguanine, which enables precise quantification of metastatic cells, even when they are disseminated at sub-microscopic levels at distant organs, upon excision and digestion of selected organs. The clonogenic assay is based on a principle by which one colony represents one metastatic cell. Briefly, spontaneous lung metastasis was measured in BALB/c mice bearing orthotopic 4T1 tumors of equal size (1-1.2 cm in diameter). Lungs were excised and minced and plated in RPMI/10% FBS in the presence of 6-thioguanine to select for tumor cells only. Cells were plated in a 5% CO2 incubator at 37° C. for 14 days to form 4T1 colonies. On day 14 after plating, the medium was removed from dishes, and colonies were fixed in 4% paraformaldehyde for one hour at room temperature. Colonies were then stained in 2% crystal violet solution and thoroughly washed with PBS. Plates were allowed to air dry, and colonies in each plate were quantified. […]

## C[C@H](NC(=O)[C@@H](N)[C@@H](C)O)C(=O)N[C@@H](Cc1ccccc1)C(=O)N[C@@H](CCC(N)=O)C(=O)N[C@@H](CCC(=O)O)C(=O)N1CCC[C@H]1C(=O)N1CCC[C@H]1C(=O)N1CCC[C@H]1C(=O)N[C@@H](CCCCN)C(=O)N1CCC[C@H]1C(=O)N[C@@H](CO)C(=O)N[C@@H](CCCNC(=N)N)C(=O)N1CCC[C@H]1C(=O)N[C@@H](CCCCN)C(=O)N[C@@H](Cc1ccc(O)cc1)C(=O)N[C@@H](CCCNC(=N)N)C(=O)N1CCC[C@H]1C(=O)N1CCC[C@H]1C(=O)N1CCC[C@H]1C(=O)O [Pyk2-PRR2, TAFQEPPPKPSRPKYRPPP]
[1]
  higher affinity than Pyk2-PRR3: 16 fold
[2]
  lung metastases (6-thioguanine-resistant colonies): significantly fewer lung metastases; also recorded: can suppress in vivo breast tumor metastasis; also recorded: significantly inhibited lung metastasis
